# From patent US7507792B2, “MDA-7 proteins and methods of use thereof” (The Trustees of Columbia University In The City of New York, priority 1993, dated 2009)
# Like-named read-outs stand apart in the source and are kept apart here.
# How the values were obtained:
# Assay type in all cases: cell-based, human
# [1] = tested on: MDA-6 (WAF1/CIP1/SDI1) protein; assay: Immunoprecipitation of MDA-6 (WAF1/CIP1/SDI1) protein in HL-60 cells; settings: TPA, DMSO (1%) or RA (1 μM), 12, 24, 48 and 72 h tested
# Method: Immunoprecipitation analyses were performed as described previously (Duigou et al., 1991; Su et al. 1993). Logarithmically growing HL-60 cells were either untreated or treated for 12, 24, 48 or 72 h with TPA ([…]), RA (1 μM) or DMSO (1%) in 10-cm plates. Cultures were starved of methionine for 1 h at 37° C. in methionine-free medium, cells were concentrated by pelleting and labeled for 4 h at 37° C. in 1 ml of the same medium with 100 μCi of [^35S] (NEN; Express ^35S). After labeling, the cells were washed twice with ice-cold phosphate-buffered saline and lysed for 1 h on ice by the addition of RIPC (20 mM Tris-base, pH 7.5, 500 mM NaCl, 0.05% Nonidet P-40, 100 μg/ml phenylmethylsulfonyl fluoride and 0.02% sodium azide). The lysate was clarified by centrifugation in an Eppendorf microfuge at 10,000×g for 10 min at 4° C. Samples containing 4×10^6 counts were incubated with 2 μg of WAF1/CIP1 (C-19) (Santa Cruz Biotechnology) (or MDA-6 peptide-derived) rabbit polyclonal IgG or actin monoclonal antibody (Oncogene Sciences) with rocking at 4° C. for 24 h. The next day, 30 μl (packed volume) of protein G-agarose (Oncogene Sciences) was added to each tube, and incubation with rocking at 4° C. continued for another hour. The protein G pellets were then washed five times with 1 ml of ice-cold RIPC:phosphate-buffered saline (1:1, v/v). Thirty μl of sodium dodecyl sulfate-polyacrylamide gel electrophoresis buffer were added to the pellets, and the sample was heated at 87° C. for 3 min. The samples were loaded onto an 10% polyacrylamide gel and run overnight at 40 V. The gel contained Rainbow protein markers (Amersham) for sizing. Gels were fixed with 10% acetic acid plus 10% methanol for 30 min, incubated in DMSO for 30 min, incubated with 10% 2,5-diphenyloxazole in DMSO for 30 min, washed three times with cold water (10 min each), dried and exposed to film.
# mda-6 (WAF1/CIP1/SDI1) [2] = settings: HL-525
# Method: (§1) HL-60 cells were originally provided by Dr. R. C. Gallo (National Cancer Institute, Bethesda, Md.) (Collins et al., 1978; Huberman & Callaham, 1979). HL-60 cells designated HL-525 were derived by cloning HL-60 cells after subculturing 102 times in the presence of increasing concentrations (up to 3 μM) of TPA at 5- to 8-day intervals (Homma et al., 1986; Mitchell et al., 1986). […] Prior to the experiments described in this study, the HL-525 cells were subcultured more than 20 times in the absence of TPA. Cells were grown in 100-mm tissue culture dishes in RPMI 1640 medium supplemented with 20% fetal bovine serum, penicillin (100 units/ml) and streptomycin (100 μg/ml) (Grand Island Biological Co., NY) at 37° C. in an atmosphere of 5% CO2 in air in a humidified incubator. The 1,25-(OH)2D3(Vit D3) and TPA were dissolved in a final concentration of 0.01% DMSO, and all-trans retinoic acid (RA) was dissolved in 0.1% DMSO in culture medium. […] Control cultures were treated with DMSO at a final concentration of 0.1% in culture medium. For experiments designed to test the effect of DMSO on HL-60 and HL-525 cells, DMSO was added to tissue culture medium at a final concentration of 1%. Stock solutions of CHX (10 mg/ml) were prepared in culture medium. CHX was added at a final concentration of 10 μg/ml. To examine a requirement for protein synthesis on mda-6 gene expression, HL-60 or HL-525 cells were seeded into 150 mm Petri dishes (5×10^5 cells/ml) in 30 ml of medium. CHX was added to a final concentration of 10 μg/ml 15 min prior to the addition of TPA to 3 nM. Cells were harvested at various times after addition of TPA for subsequent RNA isolation and analysis.
# RNA was purified by centrifugation through a CsC1 cushion as described by Chirgwin et al. (1979). Ten μg of RNA was denatured with glyoxal/DMSO, electrophoresed on 1.0% agarose gels, transferred to nylon membranes, hybridized to a ^32P-labeled mda-6 probe (Jiang and Fisher, 1993) and then after stripping the membrane hybridized to a ^32P-labeled rat GAPDH probe (Fort et al., 1985), as described previously (Reddy et at., 1991; Su et al., 1991; Jiang et al., 1992). Following hybridization, the filters were washed and exposed for autoradiography (Reddy et al., 1991; Su et al., 1991; Jiang et al., 1992). mda-6 and GAPDH gene expression were also determined by reverse transcription-polymerase chain reaction (RT-PCR) as described (Adollahi et al. 1991; Lin et al., 1994). Total cytoplasmic RNA was treated with 0.5 units DNase (Boehringer-Mannheim Biochemicals)/μg RNA in 15% glycerol, 10 mM Tris, pH 7.5, 2.5 mM MgCl2, 0.1 mM EDTA, 80 mM KC1, 1 mM CaCl2 and 1 unit/ml RNasin (Promega) at 30° C. for 10 min. RNA was extracted with phenol-chloroform, precipitated with sodium acetate/ethanol and RNA pellets were resuspended in diethylpyrocarbonate-treated H2O. One μg of total RNA was reverse transcribed with 200 units of murine leukemia virus reverse transcriptase (Bethesda Research Laboratories) in 20 μl containing 1 mM deoxyribonucleotide triphosphates, 4 mM MgCl2, 10 mM Tris, pH 8.3, 50 mM KC1, 0.001% gelatin and 0.2 μg oligo-dT primer. Samples were diluted to 100 μl with buffer containing 0.2 mM deoxyribonucleotide triphosphates, 2 mM MgCl2, 10 mM Tris, pH 8.3, 50 mM KC1 and 0.001% gelatin. […]
# mda-6 (WAF1/CIP1/SDI1) [3] = assay: Induction of mda-6 (WAF1/CIP1/SDI1) expression in HL-60 cells (Northern blotting, RT-PCR); settings: CHX 10 μg/ml 1, 3, 6 or 10 h, without or with TPA 3 nM
# Method: HL-60 cells were originally provided by Dr. R. C. Gallo (National Cancer Institute, Bethesda, Md.) (Collins et al., 1978; Huberman & Callaham, 1979). HL-60 cells designated HL-525 were derived by cloning HL-60 cells after subculturing 102 times in the presence of increasing concentrations (up to 3 μM) of TPA at 5- to 8-day intervals (Homma et al., 1986; Mitchell et al., 1986). […] Prior to the experiments described in this study, the HL-525 cells were subcultured more than 20 times in the absence of TPA. Cells were grown in 100-mm tissue culture dishes in RPMI 1640 medium supplemented with 20% fetal bovine serum, penicillin (100 units/ml) and streptomycin (100 μg/ml) (Grand Island Biological Co., NY) at 37° C. in an atmosphere of 5% CO2 in air in a humidified incubator. The 1,25-(OH)2D3(Vit D3) and TPA were dissolved in a final concentration of 0.01% DMSO, and all-trans retinoic acid (RA) was dissolved in 0.1% DMSO in culture medium. […]
# RNA was purified by centrifugation through a CsC1 cushion as described by Chirgwin et al. (1979). […] Following hybridization, the filters were washed and exposed for autoradiography (Reddy et al., 1991; Su et al., 1991; Jiang et al., 1992). mda-6 and GAPDH gene expression were also determined by reverse transcription-polymerase chain reaction (RT-PCR) as described (Adollahi et al. 1991; Lin et al., 1994). […]
# HL-525 cells = assay: OKM1 reactivity (immunofluorescence); settings: TPA 3 nM, RA 1 μM or Vit D3 400 nM, percent OKM1 positive cells
# Method: as §1
# (§2) Cell counts were determined by hemocytometer chamber counting. Immunofluorescence tests for reactivity with the OKM1 antibody (Ortho Pharmaceutical Corp., Raritan, N.J.) were performed as previously described (Murao et al., 1983).
# HL-60 cells = assay: OKM1 reactivity (immunofluorescence); settings: TPA 3 nM, RA 1 μM or Vit D3 400 nM, percent OKM1 positive cells
# Method: as §1, §2
smiles,measurement,setting,value
"C[S+](C)[O-] [DMSO, dimethyl sulfoxide]",time of treatment at which MDA-6 protein is detected,[1],48 h
"C[C@@H]1C[C@@H]([C@H](O)CC2CC(=O)NC(=O)C2)C(=O)[C@@H](C)C1 [CHX, cycloheximide]",mda-6 expression in the presence of cycloheximide,"mda-6 (WAF1/CIP1/SDI1) [2]; CHX 10 μg/ml 1, 3, 6 or 10 h, without or with TPA 3 nM",induces mda-6 expression
same,mda-6 expression in the presence of cycloheximide,mda-6 (WAF1/CIP1/SDI1) [3],induction of mda-6
"C=C1/C(=C\C=C2/CCC[C@]3(C)[C@@H]([C@H](C)CCCC(C)(C)O)CC[C@@H]23)C[C@@H](O)C[C@@H]1O [Vit D3, 1,25-(OH)2D3]",time of treatment at which mda-6 expression is induced,"mda-6 (WAF1/CIP1/SDI1) [2]; TPA 3 nM, Vit D3 400 nM, RA 1 μM, 1 to 12 h test period",≤ 2 h
same,"OKM1 reactivity, Days of induction 4",HL-525 cells,84%
same,"OKM1 reactivity, Days of induction 6",HL-525 cells,80%
same,"OKM1 reactivity, Days of induction 4",HL-60 cells,88%
same,"OKM1 reactivity, Days of induction 6",HL-60 cells,95%
